Results reported in patent publication US20030232057A1, “Method and composition for inducing tolerance to an antigenic material” (priority 2000, published 2003).

Legend:
Format in all cases: in vivo, Balb/c mice
[1] = test system: anti-BLG IgE; assay: Measurement of specific anti-BLG IgE antibody in serum by ELISA; conditions: 26 days post-tolerization; whey vs non-tolerized mice (p<0.05), drugs vs whey proteins fed mice
Method: To start the experiment the mice were forced fed and/or injected i.p. with butyrate (which promotes COX-2 activity), ibuprofen (which inhibits COX activity) or saline (control) daily from day −3 to day 4. On day 0, the mice were fed by gastric feeding whey proteins (3 mg/g of body weight) or same volume of saline water. Gavage products were dissolved in 0.3 ml of saline water. At day 4 of each experiment, all mice were immunized by intraperitoneal injection of 0.08 mg of BLG as well as 0.08 mg of OVA in 0.04 ml sterile saline mixed with 0.16 ml 2% Al(OH)3 (Superfos Biosecotr A/S, Denmark). […] (^3H)Tdr (Amersham, Zurich) was added for the final 6 hours of culture and the plates were harvested and analyzed by scintillation counting (TopCount, Canberra Packard, Zurich). […] Stimulation indices were calculated as the ratio of blank-subtracted test and control values at 2.5 mg BLG/mL and 50 μg PHA/mL. […] Optical densities were measured at 492 nm, after 15 mn of incubation at room temperature, using a Dynatech MR500 ELISA reader (Dynatech, Embrach-Embraport, Switzerland. Pooled samples from twenty non immunized female mice were used as negative controls in each plate. The cut-off dilutions were determined by calculating the dilution of the samples which gave twice the absorbance of the negative controls. Titers were expressed as the log10 of the reciprocal of the cut-off dilution.

[2] = test system: BLG-stimulated lymphocytes; assay: Cytokine ELISA (IFN-γ) in supernatants of BLG-stimulated spleen cells from treated mice; conditions: mice fed whey proteins 3 mg/g on day 0; drug daily day -3 to day 4; 5 days after tolerization; whey vs non-tolerized control mice, drugs vs whey proteins fed mice
Method: To start the experiment the mice were forced fed and/or injected i.p. with butyrate (which promotes COX-2 activity), ibuprofen (which inhibits COX activity) or saline (control) daily from day −3 to day 4. On day 0, the mice were fed by gastric feeding whey proteins (3 mg/g of body weight) or same volume of saline water. Gavage products were dissolved in 0.3 ml of saline water. At day 4 of each experiment, all mice were immunized by intraperitoneal injection of 0.08 mg of BLG as well as 0.08 mg of OVA in 0.04 ml sterile saline mixed with 0.16 ml 2% Al(OH)3 (Superfos Biosecotr A/S, Denmark). At day 4 or at day 26, blood samples were obtained from cardiac aortic punction under 3% Isoflurane anaesthesia (Abbott SA). Immediately after death, obtained by cervical dislocation, spleens were removed and pooled according to group of treatment in 20 ml chilled RPMI supplemented with 5% FCS. […] (^3H)Tdr (Amersham, Zurich) was added for the final 6 hours of culture and the plates were harvested and analyzed by scintillation counting (TopCount, Canberra Packard, Zurich). […] Stimulation indices were calculated as the ratio of blank-subtracted test and control values at 2.5 mg BLG/mL and 50 μg PHA/mL. […] IFN-γ levels were measured using cytokine specific ELISA kit Endogen; which were performed according to the manufacturers' instructions. […]

[3] = test system: BLG-stimulated lymphocytes; assay: Prostaglandin E2 measurement (EIA) in culture media of lymphocytes from treated mice; conditions: mice fed whey proteins 3 mg/g on day 0; drug daily day -3 to day 4; 5 days after tolerization; whey vs non-tolerized control mice, drugs vs whey proteins fed mice
Method: To start the experiment the mice were forced fed and/or injected i.p. with butyrate (which promotes COX-2 activity), ibuprofen (which inhibits COX activity) or saline (control) daily from day −3 to day 4. On day 0, the mice were fed by gastric feeding whey proteins (3 mg/g of body weight) or same volume of saline water. Gavage products were dissolved in 0.3 ml of saline water. At day 4 of each experiment, all mice were immunized by intraperitoneal injection of 0.08 mg of BLG as well as 0.08 mg of OVA in 0.04 ml sterile saline mixed with 0.16 ml 2% Al(OH)3 (Superfos Biosecotr A/S, Denmark). At day 4 or at day 26, blood samples were obtained from cardiac aortic punction under 3% Isoflurane anaesthesia (Abbott SA). Immediately after death, obtained by cervical dislocation, spleens were removed and pooled according to group of treatment in 20 ml chilled RPMI supplemented with 5% FCS. […] (^3H)Tdr (Amersham, Zurich) was added for the final 6 hours of culture and the plates were harvested and analyzed by scintillation counting (TopCount, Canberra Packard, Zurich). […] Stimulation indices were calculated as the ratio of blank-subtracted test and control values at 2.5 mg BLG/mL and 50 μg PHA/mL. PGE2 levels in the culture media, from lymphocytes cultured for 6 hrs or 12 hrs, were determined by using an enzyme immunoassay (EIA) kit (Cayman Chemical, ). […]

[4] = test system: spleen cells; assay: Specific proliferation assay ((3H)Tdr incorporation) of spleen cells from treated mice; conditions: 4 days post-tolerization; index below 0.5 indicates tolerized mice; drugs compared with whey proteins fed mice
Method: To start the experiment the mice were forced fed and/or injected i.p. with butyrate (which promotes COX-2 activity), ibuprofen (which inhibits COX activity) or saline (control) daily from day −3 to day 4. On day 0, the mice were fed by gastric feeding whey proteins (3 mg/g of body weight) or same volume of saline water. Gavage products were dissolved in 0.3 ml of saline water. At day 4 of each experiment, all mice were immunized by intraperitoneal injection of 0.08 mg of BLG as well as 0.08 mg of OVA in 0.04 ml sterile saline mixed with 0.16 ml 2% Al(OH)3 (Superfos Biosecotr A/S, Denmark). At day 4 or at day 26, blood samples were obtained from cardiac aortic punction under 3% Isoflurane anaesthesia (Abbott SA). Immediately after death, obtained by cervical dislocation, spleens were removed and pooled according to group of treatment in 20 ml chilled RPMI supplemented with 5% FCS. Spleen cell solutions were homogenized through a cellular sieve (Falcon) and purified from red cells using Histopaque density centrifugation (Sigma) at 390×g for 20 min. […] (^3H)Tdr (Amersham, Zurich) was added for the final 6 hours of culture and the plates were harvested and analyzed by scintillation counting (TopCount, Canberra Packard, Zurich). […] Stimulation indices were calculated as the ratio of blank-subtracted test and control values at 2.5 mg BLG/mL and 50 μg PHA/mL. […]

CC(C)Cc1ccc(C(C)C(=O)O)cc1 (stereo not shown) [ibuprofen]
not observed: humoral anti-BLG IgE titers [1] | INF-γ production by BLG-stimulated lymphocytes in culture [2] | PGE2 production by BLG-stimulated lymphocytes in culture [3] | proliferative response index (stimulation index) [4]
